From ChEMBL document CHEMBL2424622, “Development of amino-pyrimidine inhibitors of c-Jun N-terminal kinase (JNK): kinase profiling guided optimization of a 1,2,3-benzotriazole lead” (Bioorg Med Chem Lett, 2013)

How the values were obtained:
[1] = target: Mitogen-activated protein kinase kinase kinase kinase 4 (Homo sapiens) (UniProt O95819); test: Competitive binding affinity to MAP4K4 (unknown origin) at 10 uM in presence of ATP relative to control
[2] = target: T1, Serine/threonine-protein kinase LATS2 (Homo sapiens) (UniProt Q9NRM7); test: Competitive binding affinity to LATS2 (unknown origin) at 10 uM in presence of ATP relative to control
T1 sequence (whole entry): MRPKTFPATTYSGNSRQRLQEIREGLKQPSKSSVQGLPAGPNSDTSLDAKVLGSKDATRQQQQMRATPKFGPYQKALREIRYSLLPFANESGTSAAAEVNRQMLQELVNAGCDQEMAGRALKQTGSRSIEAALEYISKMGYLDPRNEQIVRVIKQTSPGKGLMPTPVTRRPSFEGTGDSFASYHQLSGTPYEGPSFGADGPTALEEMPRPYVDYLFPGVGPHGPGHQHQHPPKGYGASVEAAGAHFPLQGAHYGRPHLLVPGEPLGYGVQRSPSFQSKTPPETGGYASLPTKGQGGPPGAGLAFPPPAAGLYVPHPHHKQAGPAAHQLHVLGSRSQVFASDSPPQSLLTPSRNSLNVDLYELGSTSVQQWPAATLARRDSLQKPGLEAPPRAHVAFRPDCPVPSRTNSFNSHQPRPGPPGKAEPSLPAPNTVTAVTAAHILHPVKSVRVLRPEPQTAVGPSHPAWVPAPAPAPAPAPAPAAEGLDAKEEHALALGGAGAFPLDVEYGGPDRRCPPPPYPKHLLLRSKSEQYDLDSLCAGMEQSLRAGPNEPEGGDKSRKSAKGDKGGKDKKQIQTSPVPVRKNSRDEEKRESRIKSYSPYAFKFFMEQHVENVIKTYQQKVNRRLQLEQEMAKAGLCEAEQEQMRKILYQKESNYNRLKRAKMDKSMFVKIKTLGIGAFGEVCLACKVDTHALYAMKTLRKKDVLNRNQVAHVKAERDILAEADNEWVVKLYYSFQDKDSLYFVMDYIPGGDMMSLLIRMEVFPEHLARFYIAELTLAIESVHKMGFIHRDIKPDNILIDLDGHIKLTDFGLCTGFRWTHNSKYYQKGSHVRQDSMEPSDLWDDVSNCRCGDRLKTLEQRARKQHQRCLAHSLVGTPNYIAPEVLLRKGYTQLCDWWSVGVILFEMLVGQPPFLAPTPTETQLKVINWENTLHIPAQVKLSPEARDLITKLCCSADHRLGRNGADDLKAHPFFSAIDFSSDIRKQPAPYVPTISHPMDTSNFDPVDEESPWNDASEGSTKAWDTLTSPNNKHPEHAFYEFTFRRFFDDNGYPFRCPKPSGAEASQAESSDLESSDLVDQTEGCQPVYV

[3] = target: Serine/threonine-protein kinase Nek7 (Homo sapiens, UniProt Q8TDX7); test: Competitive binding affinity to NEK7 (unknown origin) at 10 uM in presence of ATP relative to control
Sequence of Serine/threonine-protein kinase Nek7 (Q8TDX7 whole entry, looked up): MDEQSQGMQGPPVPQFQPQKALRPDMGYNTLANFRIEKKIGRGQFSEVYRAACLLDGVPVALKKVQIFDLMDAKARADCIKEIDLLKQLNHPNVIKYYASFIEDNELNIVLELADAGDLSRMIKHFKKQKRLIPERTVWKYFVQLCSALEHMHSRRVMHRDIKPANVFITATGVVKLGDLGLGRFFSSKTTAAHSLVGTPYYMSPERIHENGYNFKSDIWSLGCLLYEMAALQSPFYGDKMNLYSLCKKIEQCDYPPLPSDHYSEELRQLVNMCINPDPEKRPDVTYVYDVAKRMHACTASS

[4] = target: Serine/threonine-protein kinase 33 (Homo sapiens) (UniProt Q9BYT3); test: Competitive binding affinity to STK33 (unknown origin) at 10 uM in presence of ATP relative to control
Sequence of Serine/threonine-protein kinase 33 (Homo sapiens) (Q9BYT3 whole entry, looked up): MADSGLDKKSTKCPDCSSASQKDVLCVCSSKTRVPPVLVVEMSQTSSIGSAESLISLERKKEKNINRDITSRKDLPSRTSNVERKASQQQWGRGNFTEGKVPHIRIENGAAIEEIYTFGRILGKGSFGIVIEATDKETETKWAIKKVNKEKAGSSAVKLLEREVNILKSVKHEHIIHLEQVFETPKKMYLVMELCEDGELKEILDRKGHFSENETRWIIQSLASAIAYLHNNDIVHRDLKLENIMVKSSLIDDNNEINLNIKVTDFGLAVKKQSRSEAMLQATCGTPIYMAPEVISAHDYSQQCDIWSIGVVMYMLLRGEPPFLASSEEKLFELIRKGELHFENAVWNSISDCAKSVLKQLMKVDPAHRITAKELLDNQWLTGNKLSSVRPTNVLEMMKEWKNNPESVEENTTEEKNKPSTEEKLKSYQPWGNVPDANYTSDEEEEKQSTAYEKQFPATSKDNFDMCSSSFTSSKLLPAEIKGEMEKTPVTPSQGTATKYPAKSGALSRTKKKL

[5] = target: T2, cAMP-dependent protein kinase catalytic subunit PRKX (Homo sapiens) (UniProt P51817); test: Competitive binding affinity to PRKX (unknown origin) at 10 uM in presence of ATP relative to control
T2 sequence (whole entry): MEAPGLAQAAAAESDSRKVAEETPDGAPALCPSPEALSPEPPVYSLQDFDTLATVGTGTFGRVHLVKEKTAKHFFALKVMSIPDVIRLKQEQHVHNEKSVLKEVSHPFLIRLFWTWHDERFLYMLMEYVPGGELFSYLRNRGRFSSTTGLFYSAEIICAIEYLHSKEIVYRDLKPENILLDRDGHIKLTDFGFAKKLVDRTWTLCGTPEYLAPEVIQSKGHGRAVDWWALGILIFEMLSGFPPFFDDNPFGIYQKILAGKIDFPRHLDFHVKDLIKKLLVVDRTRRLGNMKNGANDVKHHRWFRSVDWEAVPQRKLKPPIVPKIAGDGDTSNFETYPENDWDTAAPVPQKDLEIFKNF

[6] = target: T3, cGMP-dependent protein kinase 2 (Homo sapiens) (UniProt Q13237); test: Competitive binding affinity to PRKG2 (unknown origin) at 10 uM in presence of ATP relative to control
T3 sequence (whole entry): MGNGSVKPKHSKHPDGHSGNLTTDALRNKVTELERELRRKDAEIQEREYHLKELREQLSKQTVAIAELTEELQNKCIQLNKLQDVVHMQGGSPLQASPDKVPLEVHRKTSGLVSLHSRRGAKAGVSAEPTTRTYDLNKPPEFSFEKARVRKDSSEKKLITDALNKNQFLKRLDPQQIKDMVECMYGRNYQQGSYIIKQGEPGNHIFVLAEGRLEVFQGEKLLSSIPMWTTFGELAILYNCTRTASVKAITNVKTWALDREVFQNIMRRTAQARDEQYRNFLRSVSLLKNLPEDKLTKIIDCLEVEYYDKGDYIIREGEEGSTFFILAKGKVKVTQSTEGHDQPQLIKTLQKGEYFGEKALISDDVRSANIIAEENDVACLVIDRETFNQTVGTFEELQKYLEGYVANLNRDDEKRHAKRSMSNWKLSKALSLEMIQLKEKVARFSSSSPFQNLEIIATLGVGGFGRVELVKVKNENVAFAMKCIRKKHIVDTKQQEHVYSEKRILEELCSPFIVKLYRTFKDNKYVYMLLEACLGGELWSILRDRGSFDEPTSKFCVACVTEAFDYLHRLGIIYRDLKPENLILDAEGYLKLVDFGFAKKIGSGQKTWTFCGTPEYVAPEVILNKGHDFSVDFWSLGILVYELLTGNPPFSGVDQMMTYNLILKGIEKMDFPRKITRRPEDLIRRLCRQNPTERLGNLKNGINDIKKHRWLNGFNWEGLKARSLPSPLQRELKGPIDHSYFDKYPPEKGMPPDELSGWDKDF

Sequence of Mitogen-activated protein kinase kinase kinase kinase 4 (Homo sapiens) (O95819 2-1239 limits assumed): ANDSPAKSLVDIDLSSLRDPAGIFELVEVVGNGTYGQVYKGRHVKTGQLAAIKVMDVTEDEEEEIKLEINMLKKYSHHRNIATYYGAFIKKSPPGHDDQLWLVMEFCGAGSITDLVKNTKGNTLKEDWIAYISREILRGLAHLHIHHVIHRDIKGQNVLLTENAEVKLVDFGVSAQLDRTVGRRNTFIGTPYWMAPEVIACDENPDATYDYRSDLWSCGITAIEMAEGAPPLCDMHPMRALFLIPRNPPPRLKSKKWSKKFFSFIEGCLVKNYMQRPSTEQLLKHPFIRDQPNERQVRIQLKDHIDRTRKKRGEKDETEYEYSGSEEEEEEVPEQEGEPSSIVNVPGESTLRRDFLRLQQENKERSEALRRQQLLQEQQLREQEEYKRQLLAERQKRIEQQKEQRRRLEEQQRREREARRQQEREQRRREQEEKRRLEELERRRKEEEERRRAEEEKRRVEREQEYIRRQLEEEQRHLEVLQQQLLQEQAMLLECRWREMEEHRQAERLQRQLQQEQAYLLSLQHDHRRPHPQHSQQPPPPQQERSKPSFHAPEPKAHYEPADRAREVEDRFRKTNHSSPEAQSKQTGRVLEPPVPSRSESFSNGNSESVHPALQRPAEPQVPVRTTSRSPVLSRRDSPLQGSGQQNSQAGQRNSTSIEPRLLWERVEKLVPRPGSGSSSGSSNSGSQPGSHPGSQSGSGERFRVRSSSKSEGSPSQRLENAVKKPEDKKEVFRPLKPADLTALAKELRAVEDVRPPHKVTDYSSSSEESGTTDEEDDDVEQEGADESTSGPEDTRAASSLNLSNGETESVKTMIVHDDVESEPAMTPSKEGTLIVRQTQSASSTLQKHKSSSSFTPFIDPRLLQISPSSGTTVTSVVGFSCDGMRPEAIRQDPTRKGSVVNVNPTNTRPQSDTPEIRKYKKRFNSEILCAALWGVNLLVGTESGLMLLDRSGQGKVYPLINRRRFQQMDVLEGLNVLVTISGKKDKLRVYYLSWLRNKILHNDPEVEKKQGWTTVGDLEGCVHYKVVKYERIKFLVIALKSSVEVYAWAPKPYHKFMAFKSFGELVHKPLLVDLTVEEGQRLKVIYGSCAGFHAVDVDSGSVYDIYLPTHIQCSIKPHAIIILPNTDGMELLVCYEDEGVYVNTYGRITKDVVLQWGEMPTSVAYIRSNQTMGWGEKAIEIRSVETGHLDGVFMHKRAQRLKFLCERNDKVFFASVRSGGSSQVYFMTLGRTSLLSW

Row | Structure (SMILES) | inhibition [1] [%] | inhibition [2] [%] | inhibition [3] [%] | inhibition [4] [%] | inhibition [5] [%] | inhibition [6] [%]
1 | O[C@H]1CC[C@H](Nc2nccc(-c3n[nH]c4ccccc34)n2)CC1 | 95 | – | – | 98 | < 50 | < 50
2 | O[C@H]1CC[C@H](Nc2nccc(-n3nnc4ccccc43)n2)CC1 | < 50 | < 50 | 93 | 75 | < 50 | < 50

The next lines start with the values.

Row | inhibition [1] [%] | inhibition [2] [%] | inhibition [3] [%] | inhibition [4] [%] | inhibition [5] [%] | inhibition [6] [%] | Structure (SMILES)
3 | 64 | < 50 | < 50 | 78 | < 50 | < 50 | O[C@H]1CC[C@H](Nc2nccc(-n3ncc4ccccc43)n2)CC1
4 | < 50 | < 50 | < 50 | < 50 | < 50 | < 50 | O[C@H]1CC[C@H](Nc2nccc(-n3ccc4ccccc43)n2)CC1
5 | – | – | > 85 | – | – | – | CS(=O)(=O)CCCOc1cccc2c1ccn2-c1ccnc(N[C@H]2CC[C@H](C(=O)N3CCC(O)CC3)CC2)n1
